Measurements reported in patent US20240158446A1, “CYCLIC COMPOUND HAVING SELECTIVE INHIBITORY ACTION ON KRAS OVER HRAS AND NRAS” (CHUGAI SEIYAKU KABUSHIKI KAISHA, priority 2021, published 2024).
Read-outs that look alike come from different tables or passages of the source. *1 amine or outer side, *2 acyl side, *3 side chain or, on linkers, in order; H or OH if unused. Where a SMILES comes first, the peptide text is derived from it. Bridges are numbered along the chain shown (N, C = ends). [ ]: non-standard residue; d: D form. The star is where a group is joined. hPhe(3-Cl-4-CF3) = N[C@@H](CCc1ccc(C(F)(F)F)c(Cl)c1)C(=O)O; X19 = CCCN([C@@H](CC1CCC(F)(F)CC1)C(=O)[*:2])[*:1]; NEtPhe(4-Me) = CCN[C@@H](Cc1ccc(C)cc1)C(=O)O; NMeGly(cPent) = CN[C@H](C(=O)O)C1CCCC1; NMeI = CC[C@H](C)[C@H](NC)C(=O)O; NMeD = CN[C@@H](CC(=O)O)C(=O)O; NMeL = CN[C@@H](CC(C)C)C(=O)O; Morpholide = C1CN(*)CCO1; NMeA = CN[C@@H](C)C(=O)O; Ac5c = NC1(C(=O)O)CCCC1; Aze = O=C(O)[C@@H]1CCN1; Sar = CNCC(=O)O

How the values were obtained:
[1] = target: GDP-bound HRAS wild-type protein (Homo sapiens, UniProt P01112); experiment: Binding to HRAS by surface plasmon resonance (SPR), Single Cycle Kinetics; settings: for HRAS/KRAS (ratio of KD value with respect to HRAS to KD value with respect to KRAS) / HRAS/KRAS (ratio of KD value for HRAS to KD value for KRAS): SPR, GDP-bound HRAS wild-type protein vs GDP-bound KRAS wild-type protein; for HRAS/KRAS (ratio of KD value with respect to GDP-bound HRAS wild-type protein to KD value with respect to KRAS): SPR KD ratio HRAS/KRAS, class symbols
Chain of GDP-bound HRAS wild-type protein (P01112 whole entry): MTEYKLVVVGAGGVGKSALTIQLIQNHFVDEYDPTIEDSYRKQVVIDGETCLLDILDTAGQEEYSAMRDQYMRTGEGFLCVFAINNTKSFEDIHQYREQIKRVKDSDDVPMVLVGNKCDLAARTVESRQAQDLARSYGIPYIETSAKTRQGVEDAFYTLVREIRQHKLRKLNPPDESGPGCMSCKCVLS

[2] = target: GDP-bound NRAS wild-type protein (Homo sapiens, UniProt P01111); experiment: Binding to NRAS by surface plasmon resonance (SPR), Single Cycle Kinetics; settings: for NRAS/KRAS (ratio of KD value with respect to NRAS to KD value with respect to KRAS) / NRAS/KRAS (ratio of KD value for NRAS to KD value for KRAS): SPR, GDP-bound NRAS wild-type protein vs GDP-bound KRAS wild-type protein; for NRAS/KRAS (ratio of KD value with respect to GDP-bound NRAS wild-type protein to KD value with respect to KRAS): SPR KD ratio NRAS/KRAS, class symbols
Chain of GDP-bound NRAS wild-type protein (P01111 whole entry): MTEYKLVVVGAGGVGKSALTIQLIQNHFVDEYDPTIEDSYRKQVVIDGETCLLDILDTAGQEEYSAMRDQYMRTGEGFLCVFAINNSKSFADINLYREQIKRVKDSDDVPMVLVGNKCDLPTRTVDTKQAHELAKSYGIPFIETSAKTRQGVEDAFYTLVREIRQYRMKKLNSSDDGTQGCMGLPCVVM

[3] = target: GDP-bound KRAS wild-type protein (Homo sapiens, UniProt P01116); experiment: Binding to KRAS by surface plasmon resonance (SPR), Single Cycle Kinetics; settings: GDP-bound KRAS wild-type protein, read-out: KRAS KD
Chain of GDP-bound KRAS wild-type protein (P01116 whole entry): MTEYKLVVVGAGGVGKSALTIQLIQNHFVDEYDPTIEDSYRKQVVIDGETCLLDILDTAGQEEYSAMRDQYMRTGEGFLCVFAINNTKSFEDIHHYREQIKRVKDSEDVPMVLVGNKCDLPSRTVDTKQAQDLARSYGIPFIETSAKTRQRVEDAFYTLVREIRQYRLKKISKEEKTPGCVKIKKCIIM

[4] = SPR Single Cycle Kinetics, 1:1 binding model
[5] = SPR, Single Cycle Kinetics, 1:1 binding model

CC[C@H](C)[C@@H]1NC(=O)[C@H](C)N(C)C(=O)C[C@@H](C(=O)N2CCOCC2)N(C)C(=O)[C@H](C2CCCC2)N(C)C(=O)C2(CCCC2)NC(=O)[C@@H]2CCCN2C(=O)[C@H](CCc2cc(F)c(C(F)(F)F)c(F)c2)NC(=O)CN(C)C(=O)[C@H](Cc2ccc(C(F)(F)F)cc2)N2CCCCC[C@@H](C2=O)N(C)C(=O)CN(C)C1=O [PP0487]
HRAS/KRAS (ratio of KD value with respect to HRAS to KD value with respect to KRAS) [1]: B (a compound having 3 or more and less than 10 is denoted as B)
NRAS/KRAS (ratio of KD value with respect to NRAS to KD value with respect to KRAS) [2]: B (a compound having 3 or more and less than 10 is denoted as B)
Kd [3, 4]: 1.7 nM

CCC[C@H]1C(=O)N[C@@H]([C@@H](C)CC)C(=O)N(C)CC(=O)N(C)[C@H]2C/C=C\CCN(C2=O)[C@@H](Cc2ccc(C(F)(F)F)cc2)C(=O)N(C)CC(=O)N[C@@H](CCc2cc(F)c(C(F)F)c(F)c2)C(=O)N2C[C@H](OCC)C[C@H]2C(=O)NC2(CC(C)(C)C2)C(=O)N(C)[C@@H](C2CCCC2)C(=O)N(C)[C@H](C(=O)N(C)C)CC(=O)N1C [PP2780]
HRAS/KRAS (ratio of KD value with respect to GDP-bound HRAS wild-type protein to KD value with respect to KRAS) [1]: A (a compound having 10 or more and less than 20 is denoted as A)
NRAS/KRAS (ratio of KD value with respect to GDP-bound NRAS wild-type protein to KD value with respect to KRAS) [2]: A (a compound having 10 or more and less than 20 is denoted as A)
Kd [3, 4]: 0.3 nM

CC[C@H](C)[C@@H]1NC(=O)[C@H](CC(C)C)N(C)C(=O)C[C@@H](C(=O)N2CCOCC2)N(C)C(=O)[C@H](C2CCCC2)N(C)C(=O)C2(CCC2)NC(=O)[C@@H]2[C@@H](OC)CCN2C(=O)[C@H](CCc2cc(F)c(C(F)(F)F)c(F)c2)NC(=O)CN(C)C(=O)[C@H](Cc2ccc(C(F)(F)F)cc2)N2CCCCC[C@@H](C2=O)N(C)C(=O)CN(C)C1=O [PP1067]
HRAS/KRAS (ratio of KD value for HRAS to KD value for KRAS) [1]: B (a compound having 3 or more and less than 10 is denoted as B)
NRAS/KRAS (ratio of KD value for NRAS to KD value for KRAS) [2]: B (a compound having 3 or more and less than 10 is denoted as B)
Kd ([3]; SPR, Single Cycle Kinetics): 2.9 nM

CC[C@H](C)[C@@H]1NC(=O)[C@H](CC(C)C)N(C)C(=O)C[C@@H](C(=O)N2CCOCC2)N(C)C(=O)[C@H]([C@@H](C)CC)N(C)C(=O)C2(CCCC2)NC(=O)[C@@H]2CCCN2C(=O)[C@H](CCc2ccc(C(F)(F)F)c(Cl)c2)NC(=O)CN(C)C(=O)[C@H](Cc2ccc(C)cc2)N(CC)C(=O)CN(C)C(=O)CN(C)C1=O [PP0043] ([NMeL]I[Sar][Sar][NEtPhe(4-Me)][Sar][hPhe(3-Cl-4-CF3)]P[Ac5c][NMeI][NMeD]-Morpholide; lactam N-11)
HRAS/KRAS (ratio of KD value for HRAS to KD value for KRAS) [1]: C (A compound having a KD ratio of 0.1 or more and less than 3 is denoted as C)
NRAS/KRAS (ratio of KD value for NRAS to KD value for KRAS) [2]: C (A compound having a KD ratio of 0.1 or more and less than 3 is denoted as C)
Kd [3, 4]: 0.87 nM

CCO[C@@H]1C[C@H]2C(=O)NC3(CCC3)C(=O)N(C)[C@@H](C3CCCC3)C(=O)N(C)[C@H](C(=O)N3CCOCC3)CC(=O)N(C)[C@@H](Cc3ccccc3Cl)C(=O)N[C@@H]([C@@H](C)CC)C(=O)N(C)CC(=O)N(C)[C@H]3CCCCCN(C3=O)[C@@H](Cc3ccc(C(F)(F)F)cc3)C(=O)N(C)CC(=O)N[C@@H](CCc3cc(F)c(C(F)(F)F)c(F)c3)C(=O)N2C1 [PP0929]
HRAS/KRAS (ratio of KD value for HRAS to KD value for KRAS) [1]: B (a compound having 3 or more and less than 10 is denoted as B)
NRAS/KRAS (ratio of KD value for NRAS to KD value for KRAS) [2]: A (a compound having 10 or more and less than 20 is denoted as A)
Kd ([3]; SPR, Single Cycle Kinetics): 2.7 nM

CCO[C@@H]1C[C@H]2C(=O)NC3(CCC3)C(=O)N(C)[C@@H](C3CCCC3)C(=O)N(C)[C@H](C(=O)N(C)C)CC(=O)N(C)[C@@H](CC(C)C)C(=O)N[C@@H]([C@@H](C)CC)C(=O)N(C)CC(=O)N(C)[C@H]3C/C=C\CCN(C3=O)[C@@H](Cc3ccc(F)cc3C)C(=O)N(C)CC(=O)N[C@@H](CCc3cc(F)c(C(F)(F)F)c(F)c3)C(=O)N2C1 [PP1532]
HRAS/KRAS (ratio of KD value for HRAS to KD value for KRAS) ([1]; KD ratio class): B (a compound having 3 or more and less than 10 is denoted as B)
NRAS/KRAS (ratio of KD value for NRAS to KD value for KRAS) ([2]; KD ratio class): A (a compound having 10 or more and less than 20 is denoted as A)
Kd [3, 5]: 0.19 nM

CCO[C@@H]1C[C@H]2C(=O)NC3(CC(C)(C)C3)C(=O)N(C)[C@@H](C3CCCC3)C(=O)N(C)[C@H](C(=O)N(C)C)CC(=O)N(C)[C@@H](CC)C(=O)N[C@@H]([C@@H](C)CC)C(=O)N(C)CC(=O)N(C)[C@H]3C/C=C\CCN(C3=O)[C@@H](Cc3ccc(C(F)(F)F)cc3)C(=O)N(C)CC(=O)N[C@@H](CCc3ccc(C(F)(F)F)c(OC)c3)C(=O)N2C1 [PP1559]
HRAS/KRAS (ratio of KD value for HRAS to KD value for KRAS) ([1]; KD ratio class): A (a compound having 10 or more and less than 20 is denoted as A)
NRAS/KRAS (ratio of KD value for NRAS to KD value for KRAS) ([2]; KD ratio class): A (a compound having 10 or more and less than 20 is denoted as A)
Kd [3, 5]: 0.047 nM

CC[C@H](C)[C@@H]1NC(=O)[C@@H](CC(C)C)N(C)C(=O)C[C@@H](C(=O)N(C)C)N(C)C(=O)[C@@H](C2CCCC2)N(C)C(=O)C2(CCCC2)NC(=O)[C@@H]2CCCN2C(=O)[C@H](CCc2ccc(C(F)(F)F)c(Cl)c2)NC(=O)CN(C)C(=O)[C@@H](Cc2ccc(C)cc2)N2CC/C=C\CCN(CC2=O)C(=O)CN(C)C1=O [PP0618]
HRAS/KRAS (ratio of KD value with respect to HRAS to KD value with respect to KRAS) [1]: C (A compound having a KD ratio of 0.1 or more and less than 3 is denoted as C)
NRAS/KRAS (ratio of KD value with respect to NRAS to KD value with respect to KRAS) [2]: C (A compound having a KD ratio of 0.1 or more and less than 3 is denoted as C)
Kd [3, 4]: 6.2 nM

CCCN1C(=O)[C@@H]2CCN2C(=O)[C@H](C)N(C)C(=O)[C@H]([C@@H](C)CC)NC(=O)[C@H](CC(C)C)N(C)C(=O)C[C@@H](C(=O)N2CCOCC2)N(C)C(=O)[C@H](C2CCCC2)N(C)C(=O)C2(CCCC2)NC(=O)[C@@H]2CCCN2C(=O)[C@H](CCc2ccc(C(F)(F)F)c(Cl)c2)NC(=O)CN(C)C(=O)[C@@H]1CC1CCC(F)(F)CC1 [PP0527] ([NMeL]I[NMeA][Aze][X19][Sar][hPhe(3-Cl-4-CF3)]P[Ac5c][NMeGly(cPent)][NMeD]-Morpholide; lactam N-11)
HRAS/KRAS (ratio of KD value with respect to HRAS to KD value with respect to KRAS) [1]: C (A compound having a KD ratio of 0.1 or more and less than 3 is denoted as C)
NRAS/KRAS (ratio of KD value with respect to NRAS to KD value with respect to KRAS) [2]: C (A compound having a KD ratio of 0.1 or more and less than 3 is denoted as C)
Kd [3, 4]: 0.21 nM

CCO[C@@H]1C[C@H]2C(=O)NC3(CC(C)(C)C3)C(=O)N(C)[C@@H](C3CCCC3)C(=O)N(C)[C@H](C(=O)N(C)C)CC(=O)N(C)[C@@H](C)C(=O)N[C@@H]([C@@H](C)CC)C(=O)N(C)CC(=O)N(C)[C@H]3CCCCCN(C3=O)[C@@H](Cc3ccc(C(F)(F)F)cc3)C(=O)N(C)CC(=O)N[C@@H](CCc3cc(F)c(C(F)(F)F)c(F)c3)C(=O)N2C1 [PP0723]
HRAS/KRAS (ratio of KD value with respect to HRAS to KD value with respect to KRAS) [1]: B (a compound having 3 or more and less than 10 is denoted as B)
NRAS/KRAS (ratio of KD value with respect to NRAS to KD value with respect to KRAS) [2]: B (a compound having 3 or more and less than 10 is denoted as B)
Kd [3, 4]: 0.47 nM

CCO[C@@H]1C[C@H]2C(=O)NC3(CC(C)(C)C3)C(=O)N(C)[C@@H](C3CCCC3)C(=O)N(C)[C@H](C(=O)N(C)CC)CC(=O)N(C)[C@@H](CC(C)C)C(=O)N[C@@H]([C@@H](C)CC)C(=O)N(C)CC(=O)N(C)[C@H]3C/C=C\CCN(C3=O)[C@@H](Cc3ccc(C(F)F)cc3)C(=O)N(C)CC(=O)N[C@@H](CCc3ccc(C(F)(F)F)c(OC)c3)C(=O)N2C1 [PP2828]
HRAS/KRAS (ratio of KD value with respect to GDP-bound HRAS wild-type protein to KD value with respect to KRAS) [1]: A (a compound having 10 or more and less than 20 is denoted as A)
NRAS/KRAS (ratio of KD value with respect to GDP-bound NRAS wild-type protein to KD value with respect to KRAS) [2]: A (a compound having 10 or more and less than 20 is denoted as A)
Kd [3, 4]: 0.11 nM
